Results published in ChEMBL document CHEMBL1145055, “A novel class of nonpeptidic biaryl inhibitors of human cathepsin K” (J Med Chem, 2003).

What was measured:
[1] = target: Procathepsin L (Homo sapiens, UniProt P07711); experiment: In vitro inhibitory activity against human cathepsin L, using 2 uM of Z -Leu-Arg-AMC as substrate
[2] = target: Cathepsin S (Homo sapiens, UniProt P25774); experiment: In vitro inhibitory activity against human cathepsin S, using 2 uM of Z -Leu-Arg-AMC as substrate
Sequence of Cathepsin S (P25774 whole entry): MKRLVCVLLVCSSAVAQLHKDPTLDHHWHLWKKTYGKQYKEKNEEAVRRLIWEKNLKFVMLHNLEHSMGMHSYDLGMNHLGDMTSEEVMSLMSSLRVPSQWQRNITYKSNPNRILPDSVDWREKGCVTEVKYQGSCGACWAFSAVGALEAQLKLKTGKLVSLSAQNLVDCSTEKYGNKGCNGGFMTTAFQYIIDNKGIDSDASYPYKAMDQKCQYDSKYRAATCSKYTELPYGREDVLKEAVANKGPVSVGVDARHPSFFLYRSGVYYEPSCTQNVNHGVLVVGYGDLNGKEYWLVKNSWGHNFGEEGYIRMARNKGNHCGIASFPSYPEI

[3] = species: Bos taurus; experiment: cells
Description: In vitro Bone resorption; measuring degradation of bovine bone by isolated osteoclasts

[4] = target: Cathepsin B (Homo sapiens, UniProt P07858); experiment: In vitro inhibitory activity against human cathepsin B, using 2 uM of Z -Leu-Arg-AMC as substrate
[5] = target: T1, Cathepsin K (Homo sapiens, UniProt P43235); experiment: In vitro inhibitory activity against human cathepsin K, using 2 uM of Z -Leu-Arg-AMC as substrate
T1 sequence (P43235 whole entry): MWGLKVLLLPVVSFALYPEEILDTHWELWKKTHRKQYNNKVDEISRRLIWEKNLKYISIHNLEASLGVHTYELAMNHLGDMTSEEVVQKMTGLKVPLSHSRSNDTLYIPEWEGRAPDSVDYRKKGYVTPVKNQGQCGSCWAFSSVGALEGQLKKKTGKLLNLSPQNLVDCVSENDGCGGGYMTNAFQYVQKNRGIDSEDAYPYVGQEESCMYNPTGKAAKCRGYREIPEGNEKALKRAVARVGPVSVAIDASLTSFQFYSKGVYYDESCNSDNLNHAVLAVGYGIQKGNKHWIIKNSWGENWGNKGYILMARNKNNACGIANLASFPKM

[6] = target: T2, Cathepsin K (Homo sapiens) (UniProt P43235); experiment: Pre steady state kinetic parameter K off was determined
T2 sequence (whole entry): T1 sequence (P43235 whole entry)

[7] = target: T1, Cathepsin K; experiment: In vitro inhibitory activity against Human Cathepsin K using 2 uM of Z -Leu-Arg-AMC as substrate

Sequence of Procathepsin L (P07711 whole entry): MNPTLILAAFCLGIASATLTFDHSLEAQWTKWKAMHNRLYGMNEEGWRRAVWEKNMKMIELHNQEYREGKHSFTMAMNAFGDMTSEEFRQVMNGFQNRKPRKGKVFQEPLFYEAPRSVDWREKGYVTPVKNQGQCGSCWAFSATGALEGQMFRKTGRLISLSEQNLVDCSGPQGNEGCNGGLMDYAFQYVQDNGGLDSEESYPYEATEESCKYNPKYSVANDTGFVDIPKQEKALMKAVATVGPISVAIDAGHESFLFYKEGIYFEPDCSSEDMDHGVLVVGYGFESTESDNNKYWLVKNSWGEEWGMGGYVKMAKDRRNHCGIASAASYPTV

SMILES	IC50 [1] [µM]	IC50 [2] [µM]	IC50 [3] [µM]	IC50 [4] [µM]	IC50 [5] [µM]	k off [6] [s⁻¹]	Ki [7] [µM]
CC(C)CC(C(=O)NCC#N)c1cccc(-c2ccc(C3CCNCC3)cc2)c1 (centres undefined)	2.75	1.42	0.489	1.07	0.018	–	–
CC(C)C[C@@H](C(=O)NCC#N)c1cccc(-c2ccc(N3CCN(C)CC3)cc2)c1	6.27	3.93	0.096	2.6	0.006	–	–
CN1CCN(c2ccc(-c3cccc(C(CC4CC4)C(=O)NCC#N)c3)cc2)CC1 (centres undefined)	> 10	6.6	–	3.43	0.065	–	–
CC(C)CC(C(=O)NCC#N)c1cccc(-c2ccc(N3CCN(CCO)CC3)cc2)c1 (centres undefined)	0.14	0.609	–	3.34	0.012	–	–
CC(C)CC(C(=O)N(CC#N)OC(=O)C(F)(F)F)c1cccc(-c2ccncc2)c1 (centres undefined)	5.78	1.75	–	> 10	0.15	–	–
CC(C)C[C@@H](C(=O)NCC#N)c1cccc(-c2ccc(N3CCNCC3)cc2)c1	3.72	2.01	0.095	3.95	0.003	–	–
CC(C)CC(C(=O)NCC#N)c1cccc(-c2ccc(C3CNCCO3)cc2)c1 (centres undefined)	0.919	3.37	2.81	> 10	0.614	–	–
CC(C)CC(C(=O)NCC#N)c1cccc(-c2ccc(N3CCN(CC(C)(C)N)CC3)cc2)c1 (centres undefined)	> 10	1.43	0.552	> 10	0.016	–	–
CCCC(C(=O)NCC#N)c1cccc(-c2ccc(N3CCN(C)CC3)cc2)c1 (centres undefined)	> 10	> 10	–	> 10	0.087	–	–
CN1CCN(c2ccc(-c3cccc(C(CC4CCC4)C(=O)NCC#N)c3)cc2)CC1 (centres undefined)	> 10	2.31	–	8.05	0.062	–	–
CC(C)CC(C(=O)NCC#N)c1cccc(-c2ccc(S(C)(=O)=O)cc2)c1 (centres undefined)	> 10	6.62	–	> 10	1.23	–	–
CC(=O)CN1CCN(c2ccc(-c3cccc(C(CC(C)C)C(=O)NCC#N)c3)cc2)CC1 (centres undefined)	2.16	2.36	0.121	0.55	0.01	–	–
CC(C)CC(C(=O)NCC#N)c1cccc(-c2ccc(C3=CCNCC3)cc2)c1 (centres undefined)	1.68	0.652	0.267	0.554	0.057	–	–
CC(C)CC(C(=O)NCC#N)c1cccc(-c2ccc3cc[nH]c3c2)c1 (centres undefined)	–	1.26	2.78	> 10	0.291	–	–
CC(C)CC(C(=O)NCC#N)c1cccc(-c2ccc(C34CCN(CC3)CC4)cc2)c1 (centres undefined)	2.24	1.99	0.198	2.23	0.037	–	–
CN1CCN(c2ccc(-c3cccc(C(Cc4ccccc4)C(=O)NCC#N)c3)cc2)CC1 (centres undefined)	3.91	> 10	–	> 10	1.4	–	–
CC[C@H](C)CC(C(=O)NCC#N)c1cccc(-c2ccc(N3CCN(C)CC3)cc2)c1 (some centres undefined)	> 10	> 10	–	5.79	0.051	–	–
CN1CCN(c2ccc(-c3cccc(CC(=O)NCC#N)c3)cc2)CC1	> 10	> 10	–	> 10	> 10	–	–
CC(C)CC(C(=O)NCC#N)c1cccc(-c2ccccc2)c1 (centres undefined)	0.498	1.58	3.56	> 10	0.056	–	–
CC(C)CC(C(=O)NCC#N)c1cccc(-c2ccc(N3CCN(C(=O)OC(C)(C)C)CC3)cc2)c1 (centres undefined)	> 10	1.3	–	> 10	0.922	–	–

SMILES	IC50 [1] [µM]	IC50 [2] [µM]	IC50 [3] [µM]	IC50 [4] [µM]	IC50 [5] [µM]	k off [6] [s⁻¹]	Ki [7] [µM]
CC(C)CC(C(=O)NCC#N)c1cccc(-c2ccc(N3CCNCC3)cc2)c1 (racemic)	4.8	1.24	0.162	2.41	0.009	–	–
CC(C)C[C@@H](C(=O)NCC#N)c1cccc(-c2ccc3[nH]ccc3c2)c1	–	–	–	–	0.008	–	–
CC(C)CC(C(=O)NCC#N)c1cccc(-c2ccc(C(N)=O)cc2)c1 (centres undefined)	> 10	1.37	–	> 10	1.02	–	–
CC(C)CC(C(=O)NCC#N)c1cccc(-c2cncnc2)c1 (centres undefined)	> 10	> 10	–	> 10	1.04	–	–
CC(C)CC(C(=O)NCC#N)c1csc(-c2ccccc2)n1 (centres undefined)	> 10	> 10	–	> 10	1.46	–	–
CC(C)C[C@H](C(=O)NCC#N)c1cccc(-c2ccc3[nH]ccc3c2)c1	–	–	–	–	0.079	–	–
CC(C)CC(C(=O)NCC#N)c1cccc(-c2cccnc2)c1 (centres undefined)	5.95	8.04	–	> 10	0.803	–	–
CC(C)CC(C(=O)NC1(C#N)CC1)c1cccc(-c2ccc(N3CCNCC3)cc2)c1 (centres undefined)	–	–	–	–	0.003	0.0014	0.01
CC(C)CC(C(=O)NCC#N)c1cccc(-c2ccc(-c3ccncc3)cc2)c1 (centres undefined)	8.39	1.36	1.24	3.33	0.097	–	–
CC(C)CC(C(=O)NCC#N)c1cccc(-c2ccc3[nH]ccc3c2)c1 (racemic)	> 10	0.922	0.249	> 10	0.052	–	–
CC(C)CC(NC(=O)c1ccccc1)C(=O)NCC#N (centres undefined)	–	0.041	–	1.9	0.051	–	–
CC(C)CC(C(=O)NCC#N)c1cccc(-c2ccc(C3CNCCN3)cc2)c1 (stereo in doubt; 44)	0.338	0.521	–	1.25	0.058	–	–
CC(C)CC(C(=O)NCC#N)c1cccc(-c2ccc(C3CNCCN3)cc2)c1 (stereo in doubt; 43)	> 10	> 10	4.87	> 10	0.216	–	–
CC(C)CC(C(=O)NCC#N)c1cccc(-c2ccccn2)c1 (centres undefined)	5.58	> 10	–	> 10	0.488	–	–
CC(C)CC(C(=O)NCC#N)c1ccc(-c2ccccc2)cc1 (centres undefined)	> 10	3.34	–	> 10	0.79	–	–
CC(C)CC(C(=O)NCC#N)c1cncc(-c2ccccc2)c1 (centres undefined)	0.825	> 10	1.4	> 10	0.142	–	–
CC(C)CC(C(=O)NCC#N)c1cccc(-c2ccc(N3CCN(CC(C)(C)O)CC3)cc2)c1 (centres undefined)	9.55	> 10	0.142	6.37	0.006	–	–
CC(C)CC(C(=O)NCC#N)c1cccc(-c2ccc(N3CCN(C)CC3)cc2)c1 (racemic)	4.64	1.69	0.078	3.84	0.008	–	–
CC(C)CC(C(=O)NCC#N)c1cccc(-c2ccc(N3CCOCC3)cc2)c1 (centres undefined)	1.59	9.42	–	1.74	0.638	–	–
CC(C)CC(C(=O)NCC#N)c1cccc(-c2ccc(N3CCN(C(C)(C)C)CC3)cc2)c1 (centres undefined)	1.67	8.34	0.34	0.379	0.02	–	–
